Results: PubChem BioAssay (NCI)
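Compound exposure: 48 hours, 5 concentrations, 96-well plates. GI50: concentration for 50% inhibition of growth. Definition used: TGI = concentration required for complete inhibition of growth.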

Assays:
Test in all cases: DTP human tumour cell line panel, 48 h
SK-OV-3 ovarian = test system: SK-OV-3 ovarian
HT29 colon = test system: HT29 colon
SF-295 CNS = test system: SF-295 CNS
OVCAR-3 ovarian = test system: OVCAR-3 ovarian
HL-60(TB) leukemia = test system: HL-60(TB) leukemia
HOP-92 NSCLC = test system: HOP-92 NSCLC
ACHN renal = test system: ACHN renal
OVCAR-5 ovarian = test system: OVCAR-5 ovarian
HCT-15 colon = test system: HCT-15 colon
HS 578T breast = test system: HS 578T breast

Compound	TGI (SK-OV-3 ovarian) [µM]	TGI (HT29 colon) [µM]	TGI (SF-295 CNS) [µM]	TGI (OVCAR-3 ovarian) [µM]	TGI (HL-60(TB) leukemia) [µM]	TGI (HOP-92 NSCLC) [µM]	TGI (ACHN renal) [µM]	TGI (OVCAR-5 ovarian) [µM]	TGI (HCT-15 colon) [µM]	GI50 (SK-OV-3 ovarian) [µM]	GI50 (HT29 colon) [µM]	GI50 (SF-295 CNS) [µM]	GI50 (OVCAR-3 ovarian) [µM]	GI50 (ACHN renal) [µM]	GI50 (OVCAR-5 ovarian) [µM]	GI50 (HCT-15 colon) [µM]	GI50 (HS 578T breast) [µM]	TGI (HS 578T breast) [µM]	GI50 (HL-60(TB) leukemia) [µM]	GI50 (HOP-92 NSCLC) [µM]
Cc1nc(C(N)=O)c(N)n1CCN1CCN(C(=O)CCCCCCCCCCNC2N=CNc3nc[nH]c32)CC1 (stereo unspecified)	> 100	> 100	> 100	> 100	60.8	> 100	> 100	> 100	> 100	–	–	–	–	–	–	–	–	–	–	–
Cc1cc2c(C)nn(Cc3ccccc3)c2c(C(=O)O)c1C	> 100	–	> 100	> 100	> 100	> 100	> 100	> 100	> 100	–	–	–	–	–	–	–	–	–	–	–
C[N+](C)(C)CCC(=O)CC[N+](C)(C)C	> 100	31.6	34.5	33.9	17.5	–	31.3	–	42.9	–	–	–	–	–	–	–	–	–	–	–
O=C1C[C@H]2CCCN2[C@@H](c2ccccc2)C1	> 100	> 100	> 100	> 100	> 100	> 100	> 100	> 100	> 100	–	–	–	–	–	–	–	–	–	–	–
c1ccc(C2ONC3=NCCN32)cc1 (stereo unspecified)	> 100	> 100	> 100	66.3	–	–	> 100	> 100	> 100	37	67.9	48.3	20.5	41.9	67.9	16.9	–	–	–	–
COc1cc(C)ccc1C(=O)c1ccc(C)cc1OC	14.1	7.99	43.4	6.55	–	–	> 100	> 100	> 100	2.66	1.85	1.95	2.1	8.21	7.02	1.1	3.45	> 100	–	–
O=c1cc(-c2cccs2)[nH]c2cc3c(cc12)OCO3	8.14	> 74.7	> 49	> 28.5	40.1	> 100	> 100	> 100	> 100	–	–	–	–	–	–	–	–	–	–	–
CCc1cccc(C)c1NS(=O)(=O)c1ccccc1	> 100	> 100	> 100	> 100	> 100	–	> 100	> 100	> 100	–	–	–	–	–	–	–	–	–	–	–
C/C(=N/O)c1cccc(Nc2cc(-n3nnc4ccccc43)nc3ccccc23)c1	> 74.2	> 100	19.8	31.7	49.9	–	46.6	84.9	32.8	30.5	12.3	5.62	13	14.2	22.5	11.4	14.3	45.5	13.1	–
Cn1c(=O)c(N=Nc2c(=O)n(C)c(=O)n3c2[nH]c2ccccc23)c2[nH]c3ccccc3n2c1=O	> 100	> 100	> 100	> 100	> 100	> 100	> 100	> 100	> 100	–	–	–	–	–	–	–	–	–	–	–
N#CC(N)=Nc1ccccc1	> 100	> 100	> 100	> 100	> 100	> 100	> 100	> 100	> 100	–	–	–	–	–	–	–	–	–	–	–
Nc1ncnc2c1ncn2C1OC(CSCC(F)(F)F)C(O)C1O (stereo unspecified)	> 100	> 100	> 100	> 100	> 100	> 100	> 100	> 100	> 100	–	–	–	–	–	–	–	–	–	–	–
O=C1C2C3C=C4c5ccccc5N(c5ccccc5)C4(C2C(=O)N1c1ccccc1)C1C(=O)N(c2ccccc2)C(=O)C31 (stereo unspecified)	–	> 100	> 100	–	> 100	6.29	> 100	> 100	> 100	–	–	–	–	–	–	–	–	–	–	–
O=c1ncccn1[C@@H]1O[C@H](CO)[C@H](O)C1O (stereo partly specified)	> 100	> 100	> 100	> 100	> 100	> 100	> 100	> 100	> 100	–	–	–	–	–	–	–	–	–	–	–
O=C(Oc1cccnc1)c1cccnc1Nc1ccnc(C(F)(F)F)c1	> 100	> 100	> 100	62.2	–	> 100	66	> 100	> 100	> 100	30.8	44.4	18.3	21.7	72.8	27.2	32.2	> 100	–	> 100
COC(=O)c1sc(C(=O)OC)c2c1CS(=O)C2	> 100	> 100	> 100	> 100	> 100	> 100	–	> 100	> 100	–	–	–	–	–	–	–	–	–	–	–
CN1CCN(C(=S)N(C)C(=O)c2ccco2)CC1	–	> 100	> 100	> 100	–	> 100	> 100	> 100	> 100	–	–	–	–	–	–	–	–	> 100	–	–
COc1ccc2nccc(C3=CCC4CCN(C(=O)c5ccccc5)C3C4)c2c1 (stereo unspecified)	> 100	> 100	> 100	> 100	> 100	> 100	–	–	> 100	–	–	–	–	–	–	–	–	–	–	–
COC(=O)C1=CO[C@@H](OC2CC(CO)C(O)C(O)C2O)[C@@H]2[C@@H](C)[C@@H](OC(=O)/C=C/c3ccccc3)[C@@H](O)[C@H]12 (stereo partly specified) (tested in a mixture with another compound)	> 100	> 100	> 100	> 100	> 100	> 100	> 100	> 100	–	–	–	–	–	–	–	–	–	–	–	–
Cn1c(=O)nc2n(-c3ccc(O)cc3)c3ccccc3nc-2c1=O	> 100	> 100	> 100	64.2	> 100	> 100	> 100	> 100	> 100	–	–	–	–	–	–	–	–	–	–	–
O=C1C=CC(=O)c2c1ccc1c3ccccc3n(Cc3ccc([N+](=O)[O-])cc3)c21	> 100	> 100	> 100	> 100	33.2	–	> 100	–	> 100	–	–	–	–	–	–	–	–	–	–	–
